These results are taken from article PMC12067145 (ACS Medicinal Chemistry Letters, 2025).

Data set [1] in a line: Liver microsome intrinsic clearance (human). Type of data set: in vitro ADME. The settings on record: pH 7.4; human liver microsomes; read-out: LMS CLINT human. As for the experimental part: (§1) After a 5 min preincubation, the reaction was initiated by the addition of NADPH (1 mM). At selected time intervals between 0 ~ 60 min (e.g. 0, 3, 7, 15, 25, 45 and/or 60 min), aliquots were taken and subsequently placed into a 96-well plate containing cold acetonitrile with an internal standard (50 ng/mL carbamazepine). Plates were then centrifuged at 3000 rcf (4 °C) for 10 min, and the supernatant was transferred to a separate 96-well plate and diluted 1:1 with water for LC/MS/MS analysis. The in vitro half-life (T 1/2, min, Eq. 1), intrinsic clearance (CLint, mL/min/kg, Eq. 2), and subsequent predicted hepatic clearance (CLhep, mL/min/kg, Eq. 3) were determined employing the following equations: […]
(§2) where k represents the slope from linear regression analysis of the natural log percent remaining of a test compound as a function of incubation time […]
(§3) (2) CLint = in vitroT1/2 x mg microsomes x gram liver x kg body wt ascale-up factors: of 20 (human) or 45 (rat) or 87.5 (mouse) […]
(§4) where Qh (hepatic blood flow, mL/min/kg) is 21 (human) or 70 (rat) or 90 (mouse).
(§5) LC/MS/MS Bioanalysis of Samples from Plasma Protein Binding and Intrinsic Clearance […]
(§6) Samples were analyzed on a Thermo Electron TSQ Quantum Ultra triple quad mass spectrometer (San Jose, CA) via electrospray ionization (ESI) with two Themo Electron Accella pumps (San Jose, CA), and a Leap Technologies CTC PAL autosampler (Carrboro, NC). Analytes were separated by gradient elution on a dual column system with two Thermo Hypersil Gold (2.1 x 30 mm, 1.9 µm) columns (San Jose, CA) thermostated at 40 °C. HPLC mobile phase A was 0.1% formic acid in water and mobile phase B was 0.1% formic acid in acetonitrile. The gradient started […]
(§7) for 0.2 min; returned to 10% B in 0.1 min. The total run time was 1.3 min and the HPLC flow rate was 0.8 mL/min. While pump 1 ran the gradient method, pump 2 equilibrated the alternate column isocratically at 10% B. Compound optimization, data collection, and processing were performed using Thermo Electron's QuickQuan software (v2.3) and Xcalibur (v2.0.7 SP1). […]
(In general: Liver microsomes are vesicles of endoplasmic reticulum, rich in cytochrome P450 enzymes.)

Data set [2] is described as follows: Plasma protein binding (mouse). Type of data set: in vitro ADME. The settings on record: pH 7.4, read-out: PPB mouse (converted). Here is the method:
0.3% DMSO - ΔRatio of 1 µM control compound)x100
In vitro Plasma protein binding and Brain homogenate binding: Determination of fraction unbound (f u) in plasma was conducted in vitro via equilibrium dialysis using HTDialysis (HTD) membrane plates. The top half of the plate was filled with 100 uL of Dubelco’s Phosphate Buffered Saline, pH 7.4 (DPBS). Compounds were diluted into plasma from each species (5 µM final concentration), which was aliquoted in triplicate to the ‘bottom half’ of the prepared HTD plate wells. The HTD plate was sealed and incubated for 6 hours at 37 °C. Following incubation, each well (both top and bottom halves) were transferred (20 µL) to the corresponding wells of a 96-shallow-well (V-bottom) plate. The daughter plates were then matrix-matched (DPBS side wells received equal volume of plasma, and plasma side wells received equal volume of DPBS), and extraction solution (120 µL; acetonitrile containing 50 nM carbamazepine as IS) was added to all wells of both daughter plates to precipitate protein and extract test article. The plates were then sealed and centrifuged (3500 rcf) for 10 minutes at ambient temperature. Supernatant (60 µL) from each well of the daughter plates was then transferred to the corresponding wells of new daughter plates (96-shallow-well, V bottom) containing water (Milli-Q, 60 µL/well), and the plates were sealed in preparation for LC-MS/MS analysis (see LC-MS/MS analysis method below).
The unbound fraction (f u) was calculated following the equation below, and mean values for each species were calculated from 3 replicates. A similar approach was used to determine the degree of brain homogenate binding, which employed the same methodology and procedure with the following modifications: 1) a final compound concentration of 1 μM was used, 2) naïve rat brains were homogenized in DPBS (1:3 composition of brain: DPBS, w/w) using a Mini-Bead Beater™ machine in order to obtain brain homogenate, which was then treated in the same manner as the plasma samples in the previously described plasma protein binding assay. Fraction unbound for both plasma and brain samples was determined using Equation 4.

The target of another data set is Nav1.5 (Homo sapiens, UniProt Q14524). Briefly: Cardiac ion channel MPC selectivity panel. The format is cell-based.
Data set [3] can be described thus: Liver microsome intrinsic clearance (rat). Type of data set: in vitro ADME. The settings on record: pH 7.4; rat liver microsomes; read-out: LMS CLINT rat. As for the experimental part:
as §1, §2, §3, §4, §5, §6, §7

The target of a further data set is Histamine H2 (Homo sapiens, UniProt P25021). Briefly: Eurofins lead profiling screen (radioligand binding).
The next data set has as its system Thyroid Hormone. The description is as above. Set-up: species or system Rat.
A further data set deals with Serotonin (5-HT2B) (Homo sapiens, UniProt P41595). The data set is described as above.
In the next data set the target is Calcium Channel N-Type (Rattus norvegicus, UniProt Q02294). The description is as above.
Another data set addresses Transporter, GABA (Rattus norvegicus, UniProt P23978). The description is as above.
A further data set concerns the target Melatonin MT1 (Homo sapiens, UniProt P48039). The description is as above.
The test system of another data set is Imidazoline I2, Central. The data set is described as above. Set-up: species or system Rat.
The target in data set [4] is Platelet Activating Factor (PAF) (Homo sapiens, UniProt P25105). Described as above.
The subject of data set [5] is Glutamate, NMDA, Phencyclidine. The data set is described as above. Also on record: species or system Rat.
In a further data set the target is Tachykinin NK1 (Homo sapiens, UniProt P25103). The description is as above.
A further data set concerns the target Cannabinoid CB1 (Homo sapiens, UniProt P21554). The data set is described as above.
For another data set, the target named is Serotonin (5-HT3) (Homo sapiens, UniProt P46098). The data set is described as above.
In another data set the target is Bradykinin B2 (Homo sapiens, UniProt P30411). The data set is described as above.
A further data set deals with Serotonin (5-HT1A) (Homo sapiens, UniProt P08908). The description is as above.
Data set [6] has as its target Nicotinic Acetylcholine α1, Bungarotoxin (Homo sapiens, UniProt P02708+P07510+Q07001). The data set can be described thus: biochemical. The format is binding. The settings on record: read-out: % Inhibition at 10 µM.

Sequence of Nicotinic Acetylcholine α1, Bungarotoxin (P11230 24-501): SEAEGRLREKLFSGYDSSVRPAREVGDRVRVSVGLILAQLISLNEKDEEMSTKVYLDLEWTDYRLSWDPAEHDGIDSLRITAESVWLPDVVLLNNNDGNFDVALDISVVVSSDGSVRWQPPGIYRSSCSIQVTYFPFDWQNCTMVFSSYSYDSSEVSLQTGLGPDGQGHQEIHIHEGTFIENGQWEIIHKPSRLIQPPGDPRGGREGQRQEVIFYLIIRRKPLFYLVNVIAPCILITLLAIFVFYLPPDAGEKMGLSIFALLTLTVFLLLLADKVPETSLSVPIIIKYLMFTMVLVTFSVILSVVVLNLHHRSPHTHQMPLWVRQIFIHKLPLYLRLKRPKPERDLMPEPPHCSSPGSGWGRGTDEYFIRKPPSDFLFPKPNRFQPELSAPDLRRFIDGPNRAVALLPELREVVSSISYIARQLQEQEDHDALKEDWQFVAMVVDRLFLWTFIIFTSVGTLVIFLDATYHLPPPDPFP
Sequence of Nicotinic Acetylcholine α1, Bungarotoxin (P02708 21-457): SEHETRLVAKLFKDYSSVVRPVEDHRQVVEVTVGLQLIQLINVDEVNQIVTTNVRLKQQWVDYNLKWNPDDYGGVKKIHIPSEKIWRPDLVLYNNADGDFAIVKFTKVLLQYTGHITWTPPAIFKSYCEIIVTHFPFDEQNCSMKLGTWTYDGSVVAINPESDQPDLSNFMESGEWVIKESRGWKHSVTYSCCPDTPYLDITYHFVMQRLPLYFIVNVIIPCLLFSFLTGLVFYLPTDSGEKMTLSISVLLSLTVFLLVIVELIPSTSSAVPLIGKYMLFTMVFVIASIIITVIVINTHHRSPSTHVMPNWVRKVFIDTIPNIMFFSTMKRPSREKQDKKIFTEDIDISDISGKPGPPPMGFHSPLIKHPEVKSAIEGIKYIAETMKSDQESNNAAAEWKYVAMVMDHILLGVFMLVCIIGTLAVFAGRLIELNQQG
Sequence of Nicotinic Acetylcholine α1, Bungarotoxin (P07510 23-517): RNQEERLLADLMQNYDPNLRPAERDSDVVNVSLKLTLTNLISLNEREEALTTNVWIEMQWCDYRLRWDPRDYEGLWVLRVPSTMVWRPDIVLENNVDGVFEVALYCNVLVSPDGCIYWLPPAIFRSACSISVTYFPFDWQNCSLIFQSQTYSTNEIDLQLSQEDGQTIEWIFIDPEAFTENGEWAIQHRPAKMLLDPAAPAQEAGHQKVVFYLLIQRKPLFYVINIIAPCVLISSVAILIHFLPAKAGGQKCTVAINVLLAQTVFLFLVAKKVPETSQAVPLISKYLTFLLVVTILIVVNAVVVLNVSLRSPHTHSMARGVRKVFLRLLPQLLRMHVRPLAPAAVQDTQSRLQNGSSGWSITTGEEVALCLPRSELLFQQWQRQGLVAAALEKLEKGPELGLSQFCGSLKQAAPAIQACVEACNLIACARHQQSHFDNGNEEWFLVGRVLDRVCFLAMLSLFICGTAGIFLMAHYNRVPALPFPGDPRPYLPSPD
Sequence of Nicotinic Acetylcholine α1, Bungarotoxin (Q07001 22-517): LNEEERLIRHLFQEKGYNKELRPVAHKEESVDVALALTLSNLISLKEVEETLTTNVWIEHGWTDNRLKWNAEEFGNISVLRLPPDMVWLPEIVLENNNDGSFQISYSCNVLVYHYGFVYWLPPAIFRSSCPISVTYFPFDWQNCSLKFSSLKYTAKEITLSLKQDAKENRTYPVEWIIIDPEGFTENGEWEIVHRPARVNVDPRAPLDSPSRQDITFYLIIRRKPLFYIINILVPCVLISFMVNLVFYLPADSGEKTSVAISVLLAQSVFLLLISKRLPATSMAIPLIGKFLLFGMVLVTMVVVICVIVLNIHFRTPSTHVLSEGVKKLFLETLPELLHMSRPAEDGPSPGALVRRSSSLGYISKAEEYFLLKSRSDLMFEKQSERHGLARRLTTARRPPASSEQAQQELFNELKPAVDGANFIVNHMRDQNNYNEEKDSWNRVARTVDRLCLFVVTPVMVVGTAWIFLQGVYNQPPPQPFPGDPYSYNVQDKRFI
Sequence of Tachykinin NK1 (P25103 whole entry): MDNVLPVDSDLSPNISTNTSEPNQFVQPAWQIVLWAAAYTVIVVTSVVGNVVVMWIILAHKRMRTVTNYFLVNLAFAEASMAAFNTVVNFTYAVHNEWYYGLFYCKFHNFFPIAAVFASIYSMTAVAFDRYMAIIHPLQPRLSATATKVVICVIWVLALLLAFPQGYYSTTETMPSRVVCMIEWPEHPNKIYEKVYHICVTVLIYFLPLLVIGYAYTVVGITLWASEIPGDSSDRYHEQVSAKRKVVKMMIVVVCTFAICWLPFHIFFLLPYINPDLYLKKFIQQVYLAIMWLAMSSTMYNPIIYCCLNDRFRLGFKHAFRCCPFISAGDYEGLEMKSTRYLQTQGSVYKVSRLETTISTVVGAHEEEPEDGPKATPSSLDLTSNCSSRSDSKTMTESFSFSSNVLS
Sequence of Serotonin (5-HT2B) (P41595 whole entry): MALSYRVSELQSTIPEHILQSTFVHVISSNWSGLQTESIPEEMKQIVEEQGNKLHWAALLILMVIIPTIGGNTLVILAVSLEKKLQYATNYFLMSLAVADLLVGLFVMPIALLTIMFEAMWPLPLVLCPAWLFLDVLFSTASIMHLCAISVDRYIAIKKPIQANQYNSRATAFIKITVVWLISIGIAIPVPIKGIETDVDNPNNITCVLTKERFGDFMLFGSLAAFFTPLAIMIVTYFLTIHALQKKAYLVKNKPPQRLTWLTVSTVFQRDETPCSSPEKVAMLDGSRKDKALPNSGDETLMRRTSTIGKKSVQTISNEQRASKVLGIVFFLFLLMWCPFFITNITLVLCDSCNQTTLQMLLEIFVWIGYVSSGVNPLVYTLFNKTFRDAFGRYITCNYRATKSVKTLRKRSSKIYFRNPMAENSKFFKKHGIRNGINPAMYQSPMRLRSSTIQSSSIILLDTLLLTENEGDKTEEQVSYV
Sequence of Histamine H2 (P25021 whole entry): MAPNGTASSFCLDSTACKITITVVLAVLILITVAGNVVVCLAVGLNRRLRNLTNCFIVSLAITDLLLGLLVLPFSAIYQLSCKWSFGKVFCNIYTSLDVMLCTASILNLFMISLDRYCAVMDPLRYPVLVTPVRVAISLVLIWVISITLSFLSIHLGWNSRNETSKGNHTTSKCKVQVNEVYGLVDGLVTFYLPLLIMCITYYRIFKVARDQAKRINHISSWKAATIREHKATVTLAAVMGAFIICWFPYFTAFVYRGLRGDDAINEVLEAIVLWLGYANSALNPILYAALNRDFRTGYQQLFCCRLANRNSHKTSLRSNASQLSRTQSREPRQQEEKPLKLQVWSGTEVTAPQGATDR
Sequence of Melatonin MT1 (P48039 whole entry): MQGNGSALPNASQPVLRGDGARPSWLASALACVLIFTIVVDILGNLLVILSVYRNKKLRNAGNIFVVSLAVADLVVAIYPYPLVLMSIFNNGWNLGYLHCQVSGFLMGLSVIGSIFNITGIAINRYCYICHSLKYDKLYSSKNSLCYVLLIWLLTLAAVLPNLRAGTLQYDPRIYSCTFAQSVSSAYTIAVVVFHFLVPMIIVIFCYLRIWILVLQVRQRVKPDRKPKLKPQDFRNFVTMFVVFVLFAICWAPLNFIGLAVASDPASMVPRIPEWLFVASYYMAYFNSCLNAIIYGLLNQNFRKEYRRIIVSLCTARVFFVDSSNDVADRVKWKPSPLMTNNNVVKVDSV
Sequence of Serotonin (5-HT1A) (P08908 whole entry): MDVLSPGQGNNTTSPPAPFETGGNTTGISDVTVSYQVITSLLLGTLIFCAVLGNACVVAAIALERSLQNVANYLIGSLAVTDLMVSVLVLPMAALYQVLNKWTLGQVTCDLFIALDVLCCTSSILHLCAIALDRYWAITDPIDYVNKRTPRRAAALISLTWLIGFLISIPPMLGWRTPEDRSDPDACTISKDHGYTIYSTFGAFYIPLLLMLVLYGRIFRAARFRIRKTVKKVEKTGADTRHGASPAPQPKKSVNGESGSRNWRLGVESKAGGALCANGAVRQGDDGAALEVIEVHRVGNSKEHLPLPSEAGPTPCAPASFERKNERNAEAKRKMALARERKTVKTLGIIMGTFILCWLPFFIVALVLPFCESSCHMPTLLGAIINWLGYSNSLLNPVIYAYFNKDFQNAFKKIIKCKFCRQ
Sequence of Platelet Activating Factor (PAF) (P25105 whole entry): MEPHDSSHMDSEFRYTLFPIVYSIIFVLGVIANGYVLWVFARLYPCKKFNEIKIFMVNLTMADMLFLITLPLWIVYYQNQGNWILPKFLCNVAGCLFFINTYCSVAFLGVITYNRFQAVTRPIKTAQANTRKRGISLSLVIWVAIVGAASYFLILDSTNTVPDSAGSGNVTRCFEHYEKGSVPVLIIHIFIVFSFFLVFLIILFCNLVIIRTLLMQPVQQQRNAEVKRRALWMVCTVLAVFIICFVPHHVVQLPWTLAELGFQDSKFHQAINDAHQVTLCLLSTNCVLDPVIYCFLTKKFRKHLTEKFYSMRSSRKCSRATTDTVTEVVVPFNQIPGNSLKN

On to `Cc1cc(C#Cc2ccc(F)cc2)cnc1NC(=O)c1cc(NC(=O)OC(C)(C)C)ccc1Cl` [Compound 14c], for which the results for the CLint scaled at 1 µM in data set [1] and in data set [3] were 7.5 mL/min/kg and 29 mL/min/kg, respectively. The fraction unbound at 6 h, 5 µM in [2] was 0.016. Further, at Nav1.5, the “% at 10 μM, Nav1.5” value is below 50%.
With `O=C(NCc1ccc(OC(F)(F)F)cc1F)c1ccc2ncnn2c1` [ONO-2920632], the inhibition at 10 µM is -12% at Histamine H2; 31% on Serotonin (5-HT2B); 4% at Calcium Channel N-Type; 19% at Transporter, GABA; 29% at Melatonin MT1; 26% in data set [4]. Moreover, the inhibition at 10 µM was 13% at Tachykinin NK1; -23% on Cannabinoid CB1; -4% on Serotonin (5-HT3); -10% on Bradykinin B2; 4% at Serotonin (5-HT1A); -4% in data set [6]. The “% Inhibition at 10 µM” value was 3% in the data set on Thyroid Hormone; 10% in the data set on Imidazoline I2, Central; -15% in data set [5].

One may read the inhibition as the change of the read-out against control, counted positive when it falls. A word on the % Inhibition: it is the drop in the measured response relative to a control, in per cent.
